Experimental data taken from patent publication US10828309B2, “Dermocosmetic or pharmaceutical use of a composition comprising at least one inhibitor of some chemoattractant cytokines” (GREENPHARMA, priority 2014, dated 2020).
Where two headings read alike, the source gives them in different places.

Assays:
CCL17 chemokine = target: T1, CCL17 chemokine (Homo sapiens, UniProt Q92583); assay: Inhibition of calcium response induced by CCL17 in HEK 293 cells expressing CCR4 (Indo-1); format: cell-based
T1 construct: purchased; host or cells: HEK 293 cells stably transfected with EGFP-CCR4, transiently transfected with Gqi5
T1 sequence (Q92583 24-94): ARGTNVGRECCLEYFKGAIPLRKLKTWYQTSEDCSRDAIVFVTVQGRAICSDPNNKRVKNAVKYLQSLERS
Experimental: HEK 293 cells (ATCC) are cultured in minimal essential medium MEM (Invitrogen) in the presence of 10% of fetal calf serum (Gibco-BRL), 100 U/mL of penicillin (Invitrogen), 100 μg/mL of streptomycin (Invitrogen) and 2 mM of L-glutamine (Invitrogen) at 37° C. in water-saturated atmosphere and containing 5% of 002. […] The clones are selected after having been characterized by fluorescence microscopy and cytometric analysis by FACS (fluorescence assisted cell sorting).
(§1) In order to enable an easy recording of the cell responses associated to the CCR4 receptor, we modify its natural coupling to the inhibition of AMPc production to a coupling to the phospholipase C which enables calcium measurements. We produce for this purpose the chimeric protein Gqi5 by directed mutagenesis of the 5 las amino acids of Gq replaced by their homologues of Gi. The cells expressing the CCR4 receptor are transfected with the plasmid pCNA3.1 in which the cDNA encoding Gqi5 has been incorporated. The recordings of calcic responses are performed the day after de transfection.
(§2) The cells are loaded with a fluorescent calcium indicator, INDO-1, according to the protocol provided by the provider (Molecular probes), distributed in microplate wells and placed in a fluorescence reader-pipettor (FlexStation, Molecular devices).
Measure points are recorded every 5 s for 150 s for each well. The molecules are tested in the presence of 5 nM of CCL17 chemokine (commercial).
The molecules are tested at the concentration of 10 μm. The concentration of CCL17 is 5 nM.

CCL22 = target: T2, CCL22 (Homo sapiens, UniProt O00626); assay: Inhibition of calcium response induced by CCL22 in cells expressing CCR4 (Indo-1); format: cell-based; settings: molecules at 10 μm, read-out: Inhibition of calcium responses induced by CCL22 (%)
T2 sequence (O00626 25-93): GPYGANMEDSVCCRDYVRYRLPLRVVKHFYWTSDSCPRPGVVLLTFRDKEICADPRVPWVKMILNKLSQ
Experimental: In order to enable an easy recording of the responses associated to the CCR4 receptor, the cDNA which allows its expression is cloned in the plasmid pIRES (ClonTech) in fusion with the GFP protein, according to Vollmer et al. (1999), which enables to easily measure the expression of the chimeric EGFP-CCR4 receptor. HEK 293 cells (ATCC) are cultured in minimal essential medium MEM (Invitrogen) in the presence of 10% of fetal calf serum (Gibco-BRL), 100 U/mL of penicillin (Invitrogen), 100 μg/mL of streptomycin (Invitrogen) and 2 mM of L-glutamine (Invitrogen) at 37° C. in water-saturated atmosphere and containing 5% of 002. The cells are transfected according to the calcium phosphate precipitate method of Chen ant Okayama, 1986, and the cells having incorporated the expression plasmid are selected with 600 μg/mL of geneticin G-418 (PAA) for 5 weeks. The clones are selected after having been characterized by fluorescence microscopy and cytometric analysis by FACS (fluorescence assisted cell sorting).
as §1, §2
Intracellular calcium elevation is measured by fluorescence intensity change at 401 and 475 nm (excitation 355 nm). Measure points are recorded every 5 s for 150 s for each well. The molecules are tested in the presence of 5 nM of CCL17 chemokine (commercial).
The response develops in a few seconds and fades with time for reaching the return in approximately 2 minutes for a CCL17 chemokine concentration of 5 to 10 nM in HEK 293 cells expressing CCR4. If the molecules to be tested are preincubated with chemokine [CK+N] and if the mixture is added to the cells, we observe a strong decrease in the amplitude of the response if the molecule to be tested is a neutralizing ligand of the chemokine. Conversely, when the neutralizing ligand is preincubated with the cells expressing the receptor [CKR+N] we observe a much smaller decrease of the amplitude of the response.
The analysis of the molecules selectivity is carried out by measuring the inhibition (at the concentration of 10 μm) of the response evoked by other chemokines (5 μm) on their respective receptors. Thus, in FIG. 3, the molecules have been tested on the pairs CCL2/CCR2, CCL3/CCR5, CCL17/CCR4, CCL22/CCR4, […], CXCL11/CXCR3, CXCL12/CXCR4.

COX-1 = target: T3, COX-1 (Homo sapiens, UniProt P23219); assay: COX-1 activity by PGE2 production in monocytes treated with arachidonic acid; format: cell-based; settings: up to 250 μM
T3 construct: endogenous in cells; host or cells: human monocytes in culture
Experimental: (§3) Determination of the Activity of COX 1 and COX 2 Cyclooxygenases on Human Monocytes in Culture.
COX-1: the release of COX-1 mediated prostaglandin E2 (PGE2) is determined by the arachidonic acid method. […] After 15 minutes of stimulation, the activity of COX-1 is measured by determination of the production of PGE2. Aspirin (ASS) a known inhibitor of COX-1 is used as a control inhibitor.

human monocytes = assay: Cytotoxicity on human monocytes, Alamar blue assay; format: cell-based; settings: human monocytes with LPS, 5 concentrations, 24 hours
Experimental: Monocytes are inoculated in plates of 96 wells (approx. 5000 cells/well of 200 μl) for the Alamar blue assay.
After 24 hours, Alamar blue fluorescence is measured.

Hacat cells [1] = assay: Human keratinocytes migration assay (in vitro wound-healing test in a cell monolayer); format: cell-based
Experimental: It is actually known that, in chronic pathologies an important cell migration may promote de formation of pruritus, one of the signs of dermatosis. The immortalized human keratinocytes obtained from the DKFZ (Heidelberg, Germany) are cultivated in Dulbecco medium modified by Eagle (DMEM, Invitrogen) supplemented with 10% of fetal calf serum (Gibco-BRL) and 100 U/ml of penicillin (Invitrogen), 100 μg/ml of streptomycin (Invitrogen) and 2 mM of L-glutamine (Invitrogen) at 37° C. and 5% of CO2. The wells of a culture plate of 24 well are inoculated with 200,000 cells and the culture is maintained until formation of a confluent cell monolayer. The cell monolayer is then damaged by performing a linear gap (scratch) using a sterile pipette head of 0.1-10 μL. […] The effect of the molecules alone is also recorded in different wells. In order to block cell proliferation, each well receives a dose of 1 μg/ml of mitomycin (Sigma-Aldrich). The culture plates are arranged in the IncuCyte apparatus (Essence Bioscience) which records the growth on the cell monolayer by transmitted imaging in cell culture conditions (37° C., 5% CO2, water-saturated atmosphere) for 72 h. Phase-contrast images are collected every 2 hours. Healing is defined (quantified) as the ratio of the width of the scar at time t and time 0. The experiment is repeated three times per condition.

CCL17 = target: T4, CCL17 (Homo sapiens, UniProt Q92583); assay: Interaction affinity with CCL17 by fluorescence extinction of tryptophan residues; format: binding; settings: CCL17 1.5 μm, excitation 285 nm
T4 sequence (Q92583 24-94): T1 sequence (Q92583 24-94)
Experimental: Briefly: the fluorescence measurements are carried out on a spectrofluorimeter Fluorolog 3 (JobinYvon/Spex) in a quartz cuvette. […] The measurements are carried out at 20° C. and the solutions are stirred using a magnetic stir bar. The recorded emission spectra are corrected by subtraction of the emission spectrum of the compound to be tested alone.

Hacat cells [2] = assay: Cytotoxicity measurement, WST-1 metabolic activity test; format: cell-based, human; settings: 0.3 μM, 10 μM or 30 μM, 72 hours
COX-2 = target: T5, COX-2 (Homo sapiens, UniProt P35354); assay: COX-2 activity by PGE2 production in LPS-induced monocytes; format: cell-based; settings: LPS-treated monocytes
T5 construct: endogenous in cells; host or cells: human monocytes in culture, LPS-induced
T5 sequence (P35354 18-604): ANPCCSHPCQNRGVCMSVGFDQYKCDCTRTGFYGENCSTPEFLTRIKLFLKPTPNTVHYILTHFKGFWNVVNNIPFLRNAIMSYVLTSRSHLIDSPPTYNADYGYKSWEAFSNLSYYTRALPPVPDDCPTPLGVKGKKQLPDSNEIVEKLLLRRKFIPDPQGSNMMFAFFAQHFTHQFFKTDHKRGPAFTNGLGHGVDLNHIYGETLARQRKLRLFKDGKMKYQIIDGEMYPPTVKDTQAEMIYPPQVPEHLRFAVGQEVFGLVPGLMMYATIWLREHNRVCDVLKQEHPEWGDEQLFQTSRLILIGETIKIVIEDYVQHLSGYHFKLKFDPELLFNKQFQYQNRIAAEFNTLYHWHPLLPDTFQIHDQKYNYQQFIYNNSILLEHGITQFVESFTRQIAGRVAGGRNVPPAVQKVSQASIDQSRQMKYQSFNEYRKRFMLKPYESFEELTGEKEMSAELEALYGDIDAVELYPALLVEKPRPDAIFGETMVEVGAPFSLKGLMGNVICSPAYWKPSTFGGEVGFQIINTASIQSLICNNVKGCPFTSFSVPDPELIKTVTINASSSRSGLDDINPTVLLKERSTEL
Experimental: as §3
COX-2: monocytes are incubated with LPS (10 U/ml) for 24 h in order to induce COX-2 synthesis. […] The arachidonic acid is added 15 minutes after the compounds to be tested, and 15 minutes later the production of PGE2 is determined.

[3] = HEK293, molecules at 10 μm, CCL17 5 nM, HEK 293 cells expressing CCR4, read-out: Inhibition of calcium responses induced by CCL17 (%)
[4] = HEK293, read-out: Inhibition of calcium responses induced by CCL17 (%)

inhibition at 10 µM (CCL17 chemokine; [3])	SMILES	inhibition at 10 µM (CCL22)	inhibition at 10 µM (CCL17 chemokine; [4])	other results
0%	CCCCC(CC)Cn1cnc2c1c(=O)n(C)c(=O)n2C (stereo not shown) [GPS008661, 3,7-dihydro-7-(2-ethylhexyl)-1,3-dimethyl-1H-purine-2,6-dione]	0%		
	Cn1c(=O)c2[nH]cnc2n(C)c1=O [Theophylline, reference compound]	0%	0%	
	CCCCn1cnc2c1c(=O)n(C)c(=O)n2C [GPS008658, 3,7-dihydro-7-butyl-1,3-dimethyl-1H-purine-2,6-dione]	32 ± 8%	40 ± 9%	
	CC(C)=CCn1cnc2c1c(=O)n(C)c(=O)n2C [GPN279, 3,7-dihydro-1,3-dimethyl-7-(3-methyl-2-butenyl)-1H-purin-2,6-dione]	0%		Inhibition of calcium responses induced by CCL17 (%) (CCL17 chemokine; molecules at 10 μm, CCL17 5 nM, HEK 293 cells expressing CCR4): 42 ± 4%; COX-1 inhibition (PGE2 production) (COX-1): not a COX-1 inhibitor; Cytotoxicity by Alamar blue (human monocytes): not cytotoxic; Effect on cell migration accelerated by the CCL17 chemokine (Hacat cells [1]; Hacat monolayer, CCL17 100 ng/ml, 72 hours): abolished; Dose-response relationship on Hacat cell monolayer healing (Hacat cells [1]; with CCL17, 0.3 μM, 1 μM, 10 μM): its effect depends on the dose; Effect of the molecule alone on Hacat cell monolayer healing (Hacat cells [1]; without CCL17): does not have an effect; Fluorescence extinction of CCL17 (intrinsic tryptophan fluorescence) (CCL17): fluorescence extinction of CCL17 is observed; Activity of the mitochondrial enzyme (WST-1, absorbance 450 nm) (Hacat cells [2]): does not affect enzymatic activity; Effect on COX-2 activity (PGE2 production) (COX-2; beyond 100 μM): slight increase in COX-2 activity; Effect on COX-2 activity (PGE2 production) (COX-2; up to the dose of 100 μM): no effect
	C=CCn1cnc2c1c(=O)n(C)c(=O)n2C [GPS008660, 3,7-dihydro-7-allyl-1,3-dimethyl-1H-purine-2,6-dione]	0%	19 ± 5%	
0%	CC(C)Cn1c(=O)n(C)c(=O)c2nc[nH]c21 [IBMX, reference compound]	0%		
	CC(C)Cn1cnc2c1c(=O)n(C)c(=O)n2C [GPS008659, 3,7-dihydro-7-isobutyl-1,3-dimethyl-1H-purine-2,6-dione]	5 ± 5%	36 ± 7%	
0%	Cc1nc2c(=O)[nH]c(=O)[nH]c2[nH]1 [GPN062]	0%		
	COc1cc2nc(N3CCC(N4CCCCC4)CC3)nc(NC3CCCCCC3)c2cc1OC [C-021, reference compound]			Fluorescence extinction of CCL17 (intrinsic tryptophan fluorescence) (CCL17): no signal

SMILES	inhibition at 10 µM (CCL17 chemokine; [3])	inhibition at 10 µM (CCL22)	inhibition at 10 µM (CCL17 chemokine; [4])	other results
Cn1c(=O)c2c(ncn2C)n(C)c1=O [Caffeine, reference compound]	0%	0%		
